System: Pseudomonas putida
Test: Sonication (20 kHz horn probe) of Pigment Red 23 dispersion with biocide, streaking on Nutrient Agar plates
Assay type: cell-based
Design: key: −: no bacterial colonies detected; +: light contamination (10^0 and 10^3 cfu/ml); ++: moderate contamination(10^3-10^5 cfu/ml); +++: heavy contamination(>10^5 cfu/ml)
Text: A mixture of Pigment Red 23, available from Ciba Specialty Chemicals(UK) Ltd., 215.5 parts, Emulan OG (RTM) (35% solution in water), available from BASF, 153.7 parts, tributyl phosphate, available from Albright & Wilson, 2 parts, and water, 128.8 parts, are dispersed by re-circulation through a Bachofen KDL200 bead-mill until colouristic properties are within specification of UNISPERSE (RTM) Red RBS-PI, available from Ciba Specialty Chemicals(UK) Ltd., and adjusted to pH 8.0-8.5 with 20% sodium hydroxide solution. This material is identified as containing the Gram negative bacterium, Pseudomonas putida. 50 millilitre aliquots of this dispersion containing levels of glutaraldehyde (pentane-1,5-dialdehyde), available as the trade product Protectol GDA form BASF or Ucarcide from Union Carbide, between 0 parts per million (ppm) and 2000 ppm are sonicated using a Branson MSE sonicator with a 19 mm horn probe resonating at 20 kHz with an amplitude of 6 microns. Sonication is undertaken in a 100 millilitre glass beaker, diameter 38 mm, with magnetic flea agitator and cooled in a water/ice bath to maintain temperature at 28-32° C. Bacterial growth in each sample is assessed at 5 minute intervals by streaking each dispersion on to Nutrient Agar(NA) plates and incubating the plates for a minimum of 48 hours at 30° C. The plates are then examined for bacterial colonies and expressed according to the following notation:
The resistance of the pigment dispersion produced according to the process of the invention to further bacterial growth is recorded by continued observation of the samples of Table 1 over a period of up to 90 days. […]

Structure (SMILES): O=CCCCC=O [glutaraldehyde, pentane-1,5-dialdehyde]
- further bacterial growth, samples of Table 1 (10 ppm, Time 1 (days) after sonication): −
- further bacterial growth, samples of Table 1 (10 ppm, Time 2 (days) after sonication): −
- further bacterial growth, samples of Table 1 (10 ppm, Time 3 (days) after sonication): −
- further bacterial growth, samples of Table 1 (10 ppm, Time 7 (days) after sonication): −
- further bacterial growth, samples of Table 1 (10 ppm, Time 14 (days) after sonication): −
- further bacterial growth, samples of Table 1 (10 ppm, Time 28 (days) after sonication): −
- further bacterial growth, samples of Table 1 (10 ppm, Time 90 (days) after sonication): −
- bacterial colonies on Nutrient Agar (10 ppm, sonicated 0 mins.): +++ (heavy contamination(>10^5 cfu/ml))
- bacterial colonies on Nutrient Agar (10 ppm, sonicated 5 mins.): +++ (heavy contamination(>10^5 cfu/ml))
- bacterial colonies on Nutrient Agar (10 ppm, sonicated 10 mins.): +++ (heavy contamination(>10^5 cfu/ml))
- bacterial colonies on Nutrient Agar (10 ppm, sonicated 15 mins.): ++ (moderate contamination(10^3-10^5 cfu/ml))
- bacterial colonies on Nutrient Agar (10 ppm, sonicated 20 mins.): + (light contamination (10^0 and 10^3 cfu/ml))
- bacterial colonies on Nutrient Agar (10 ppm, sonicated 25 mins.): + (light contamination (10^0 and 10^3 cfu/ml))
- bacterial colonies on Nutrient Agar (10 ppm, sonicated 30 mins.): −
- further bacterial growth, samples of Table 1 (25 ppm, Time 1 (days) after sonication): −
- further bacterial growth, samples of Table 1 (25 ppm, Time 2 (days) after sonication): −
- further bacterial growth, samples of Table 1 (25 ppm, Time 3 (days) after sonication): −
- further bacterial growth, samples of Table 1 (25 ppm, Time 7 (days) after sonication): −
- further bacterial growth, samples of Table 1 (25 ppm, Time 14 (days) after sonication): −
- further bacterial growth, samples of Table 1 (25 ppm, Time 28 (days) after sonication): −
- further bacterial growth, samples of Table 1 (25 ppm, Time 90 (days) after sonication): −
- bacterial colonies on Nutrient Agar (25 ppm, sonicated 0 mins.): +++ (heavy contamination(>10^5 cfu/ml))
- bacterial colonies on Nutrient Agar (25 ppm, sonicated 5 mins.): ++ (moderate contamination(10^3-10^5 cfu/ml))
- bacterial colonies on Nutrient Agar (25 ppm, sonicated 10 mins.): −
- bacterial colonies on Nutrient Agar (25 ppm, sonicated 15 mins.): −
- bacterial colonies on Nutrient Agar (25 ppm, sonicated 20 mins.): −
- bacterial colonies on Nutrient Agar (25 ppm, sonicated 25 mins.): −
- bacterial colonies on Nutrient Agar (25 ppm, sonicated 30 mins.): −
- further bacterial growth, samples of Table 1 (50 ppm, Time 1 (days) after sonication): −
- further bacterial growth, samples of Table 1 (50 ppm, Time 2 (days) after sonication): −
- further bacterial growth, samples of Table 1 (50 ppm, Time 3 (days) after sonication): −
- further bacterial growth, samples of Table 1 (50 ppm, Time 7 (days) after sonication): −
- further bacterial growth, samples of Table 1 (50 ppm, Time 14 (days) after sonication): −
- further bacterial growth, samples of Table 1 (50 ppm, Time 28 (days) after sonication): −
- further bacterial growth, samples of Table 1 (50 ppm, Time 90 (days) after sonication): −
- bacterial colonies on Nutrient Agar (50 ppm, sonicated 0 mins.): +++ (heavy contamination(>10^5 cfu/ml))
- bacterial colonies on Nutrient Agar (50 ppm, sonicated 5 mins.): ++ (moderate contamination(10^3-10^5 cfu/ml))
- bacterial colonies on Nutrient Agar (50 ppm, sonicated 10 mins.): −
- bacterial colonies on Nutrient Agar (50 ppm, sonicated 15 mins.): ++ (moderate contamination(10^3-10^5 cfu/ml))
- bacterial colonies on Nutrient Agar (50 ppm, sonicated 20 mins.): −
- bacterial colonies on Nutrient Agar (50 ppm, sonicated 25 mins.): −
- bacterial colonies on Nutrient Agar (50 ppm, sonicated 30 mins.): −
- further bacterial growth, samples of Table 1 (75 ppm, Time 1 (days) after sonication): −
- further bacterial growth, samples of Table 1 (75 ppm, Time 2 (days) after sonication): −
- further bacterial growth, samples of Table 1 (75 ppm, Time 3 (days) after sonication): −
- further bacterial growth, samples of Table 1 (75 ppm, Time 7 (days) after sonication): −
- further bacterial growth, samples of Table 1 (75 ppm, Time 14 (days) after sonication): −
- further bacterial growth, samples of Table 1 (75 ppm, Time 28 (days) after sonication): −
- further bacterial growth, samples of Table 1 (75 ppm, Time 90 (days) after sonication): −
- bacterial colonies on Nutrient Agar (75 ppm, sonicated 0 mins.): +++ (heavy contamination(>10^5 cfu/ml))
- bacterial colonies on Nutrient Agar (75 ppm, sonicated 5 mins.): −
- bacterial colonies on Nutrient Agar (75 ppm, sonicated 10 mins.): −
- bacterial colonies on Nutrient Agar (75 ppm, sonicated 15 mins.): −
- bacterial colonies on Nutrient Agar (75 ppm, sonicated 20 mins.): −
- bacterial colonies on Nutrient Agar (75 ppm, sonicated 25 mins.): −
- bacterial colonies on Nutrient Agar (75 ppm, sonicated 30 mins.): −
- further bacterial growth, samples of Table 1 (100 ppm, Time 1 (days) after sonication): −
- further bacterial growth, samples of Table 1 (100 ppm, Time 2 (days) after sonication): −
- further bacterial growth, samples of Table 1 (100 ppm, Time 3 (days) after sonication): −
- further bacterial growth, samples of Table 1 (100 ppm, Time 7 (days) after sonication): −
- further bacterial growth, samples of Table 1 (100 ppm, Time 14 (days) after sonication): −
- further bacterial growth, samples of Table 1 (100 ppm, Time 28 (days) after sonication): −
- further bacterial growth, samples of Table 1 (100 ppm, Time 90 (days) after sonication): −
- bacterial colonies on Nutrient Agar (100 ppm, sonicated 0 mins.): +++ (heavy contamination(>10^5 cfu/ml))
- bacterial colonies on Nutrient Agar (100 ppm, sonicated 5 mins.): + (light contamination (10^0 and 10^3 cfu/ml))
- bacterial colonies on Nutrient Agar (100 ppm, sonicated 10 mins.): + (light contamination (10^0 and 10^3 cfu/ml))
- bacterial colonies on Nutrient Agar (100 ppm, sonicated 15 mins.): −
- bacterial colonies on Nutrient Agar (100 ppm, sonicated 20 mins.): −
- bacterial colonies on Nutrient Agar (100 ppm, sonicated 25 mins.): −
- bacterial colonies on Nutrient Agar (100 ppm, sonicated 30 mins.): −
- further bacterial growth, samples of Table 1 (150 ppm, Time 1 (days) after sonication): −
- further bacterial growth, samples of Table 1 (150 ppm, Time 2 (days) after sonication): −
- further bacterial growth, samples of Table 1 (150 ppm, Time 3 (days) after sonication): −
- further bacterial growth, samples of Table 1 (150 ppm, Time 7 (days) after sonication): −
- further bacterial growth, samples of Table 1 (150 ppm, Time 14 (days) after sonication): −
- further bacterial growth, samples of Table 1 (150 ppm, Time 28 (days) after sonication): −
- further bacterial growth, samples of Table 1 (150 ppm, Time 90 (days) after sonication): −
- bacterial colonies on Nutrient Agar (150 ppm, sonicated 0 mins.): +++ (heavy contamination(>10^5 cfu/ml))
- bacterial colonies on Nutrient Agar (150 ppm, sonicated 5 mins.): −
- bacterial colonies on Nutrient Agar (150 ppm, sonicated 10 mins.): −
- bacterial colonies on Nutrient Agar (150 ppm, sonicated 15 mins.): −
- bacterial colonies on Nutrient Agar (150 ppm, sonicated 20 mins.): −
- bacterial colonies on Nutrient Agar (150 ppm, sonicated 25 mins.): −
- bacterial colonies on Nutrient Agar (150 ppm, sonicated 30 mins.): −
- further bacterial growth, samples of Table 1 (500 ppm, Time 1 (days) after sonication): −
- further bacterial growth, samples of Table 1 (500 ppm, Time 2 (days) after sonication): −
- further bacterial growth, samples of Table 1 (500 ppm, Time 3 (days) after sonication): −
- further bacterial growth, samples of Table 1 (500 ppm, Time 7 (days) after sonication): −
- further bacterial growth, samples of Table 1 (500 ppm, Time 14 (days) after sonication): −
- further bacterial growth, samples of Table 1 (500 ppm, Time 28 (days) after sonication): −
- further bacterial growth, samples of Table 1 (500 ppm, Time 90 (days) after sonication): −
- bacterial colonies on Nutrient Agar (500 ppm, sonicated 0 mins.): +++ (heavy contamination(>10^5 cfu/ml))
- bacterial colonies on Nutrient Agar (500 ppm, sonicated 5 mins.): −
- bacterial colonies on Nutrient Agar (500 ppm, sonicated 10 mins.): −
- bacterial colonies on Nutrient Agar (500 ppm, sonicated 15 mins.): −
- bacterial colonies on Nutrient Agar (500 ppm, sonicated 20 mins.): −
- bacterial colonies on Nutrient Agar (500 ppm, sonicated 25 mins.): −
- bacterial colonies on Nutrient Agar (500 ppm, sonicated 30 mins.): −
- further bacterial growth, samples of Table 1 (1000 ppm, Time 1 (days) after sonication): −
- further bacterial growth, samples of Table 1 (1000 ppm, Time 2 (days) after sonication): −
- further bacterial growth, samples of Table 1 (1000 ppm, Time 3 (days) after sonication): −
- further bacterial growth, samples of Table 1 (1000 ppm, Time 7 (days) after sonication): −
- further bacterial growth, samples of Table 1 (1000 ppm, Time 14 (days) after sonication): −
- further bacterial growth, samples of Table 1 (1000 ppm, Time 28 (days) after sonication): −
- further bacterial growth, samples of Table 1 (1000 ppm, Time 90 (days) after sonication): −
- bacterial colonies on Nutrient Agar (1000 ppm, sonicated 0 mins.): +++ (heavy contamination(>10^5 cfu/ml))
- bacterial colonies on Nutrient Agar (1000 ppm, sonicated 5 mins.): −
- bacterial colonies on Nutrient Agar (1000 ppm, sonicated 10 mins.): −
- bacterial colonies on Nutrient Agar (1000 ppm, sonicated 15 mins.): −
- bacterial colonies on Nutrient Agar (1000 ppm, sonicated 20 mins.): −
- bacterial colonies on Nutrient Agar (1000 ppm, sonicated 25 mins.): −
- bacterial colonies on Nutrient Agar (1000 ppm, sonicated 30 mins.): −
- further bacterial growth, samples of Table 1 (2000 ppm, Time 1 (days) after sonication): −
- further bacterial growth, samples of Table 1 (2000 ppm, Time 2 (days) after sonication): −
- further bacterial growth, samples of Table 1 (2000 ppm, Time 3 (days) after sonication): −
- further bacterial growth, samples of Table 1 (2000 ppm, Time 7 (days) after sonication): −
- further bacterial growth, samples of Table 1 (2000 ppm, Time 14 (days) after sonication): −
- further bacterial growth, samples of Table 1 (2000 ppm, Time 28 (days) after sonication): −
- further bacterial growth, samples of Table 1 (2000 ppm, Time 90 (days) after sonication): −
- bacterial colonies on Nutrient Agar (2000 ppm, sonicated 0 mins.): +++ (heavy contamination(>10^5 cfu/ml))
- bacterial colonies on Nutrient Agar (2000 ppm, sonicated 5 mins.): −
- bacterial colonies on Nutrient Agar (2000 ppm, sonicated 10 mins.): −
- bacterial colonies on Nutrient Agar (2000 ppm, sonicated 15 mins.): −
- bacterial colonies on Nutrient Agar (2000 ppm, sonicated 20 mins.): −
- bacterial colonies on Nutrient Agar (2000 ppm, sonicated 25 mins.): −
- bacterial colonies on Nutrient Agar (2000 ppm, sonicated 30 mins.): −
